The source of these data is ChEMBL document CHEMBL5465560, “Selectivity Literature for EUbOPEN Chemogenomic Library” (2024).

The target in assay [1] is Phosphatidylinositol 4-phosphate 5-kinase type-1 alpha (Homo sapiens) (UniProt Q99755). Particulars: at 10 µM.
Assay [2] addresses Protein arginine N-methyltransferase 8 (Homo sapiens, UniProt Q9NR22). As to the kind of experiment: Selectivity interaction (Methyltransferase screen (Scintillation proximity assays)) EUB0000255b PRMT8. (In general: Scintillation proximity formats need no separation of bound from free tracer.)
For assay [3], the system named is Tyrosine-protein kinase ABL1 (Homo sapiens), P00519 [Q252H]. As to the kind of experiment: Selectivity interaction (KinomeScan (DiscoverX)) EUB0000045b ABL1. Particulars: at 1 µM.
In assay [4] the target is T1, Mitogen-activated protein kinase kinase kinase 12 (Homo sapiens) (UniProt Q12852).
T1 sequence (whole entry): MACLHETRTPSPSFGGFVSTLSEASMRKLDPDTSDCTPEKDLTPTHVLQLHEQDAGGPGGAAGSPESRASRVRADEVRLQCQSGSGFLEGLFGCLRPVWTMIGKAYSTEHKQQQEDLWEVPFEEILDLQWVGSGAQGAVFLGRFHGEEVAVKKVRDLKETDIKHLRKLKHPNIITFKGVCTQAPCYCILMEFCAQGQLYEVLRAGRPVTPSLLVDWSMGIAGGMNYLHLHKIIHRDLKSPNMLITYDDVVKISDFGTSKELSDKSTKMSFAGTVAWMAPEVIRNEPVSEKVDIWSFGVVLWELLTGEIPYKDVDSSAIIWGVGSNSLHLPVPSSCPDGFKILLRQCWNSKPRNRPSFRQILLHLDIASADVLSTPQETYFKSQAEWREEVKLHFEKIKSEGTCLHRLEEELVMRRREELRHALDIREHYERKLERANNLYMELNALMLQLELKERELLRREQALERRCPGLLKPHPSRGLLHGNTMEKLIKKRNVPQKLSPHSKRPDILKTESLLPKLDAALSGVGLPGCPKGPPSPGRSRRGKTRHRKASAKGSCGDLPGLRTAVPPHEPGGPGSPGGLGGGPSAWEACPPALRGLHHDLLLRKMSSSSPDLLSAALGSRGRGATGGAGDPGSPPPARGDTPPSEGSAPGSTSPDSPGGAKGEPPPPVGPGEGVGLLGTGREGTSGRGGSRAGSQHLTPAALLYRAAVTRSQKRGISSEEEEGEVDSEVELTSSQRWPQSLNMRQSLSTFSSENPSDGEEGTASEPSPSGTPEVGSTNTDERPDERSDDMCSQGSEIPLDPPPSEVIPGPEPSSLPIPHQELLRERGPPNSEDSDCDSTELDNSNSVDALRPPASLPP
As to the kind of experiment: Selectivity interaction (KinomeScan (DiscoverX)) EUB0000607a MAP3K12. Particulars: at 10 µM.

The target in assay [5] is Dual specificity tyrosine-phosphorylation-regulated kinase 1B (Homo sapiens, UniProt Q9Y463). As to the kind of experiment: Selectivity interaction (KinomeScan (DiscoverX)) EUB0000607a DYRK1B. To be noted: at 10 µM.
The target of assay [6] is T2, Mitogen-activated protein kinase kinase kinase 6 (Homo sapiens) (UniProt O95382).
T2 sequence (whole entry): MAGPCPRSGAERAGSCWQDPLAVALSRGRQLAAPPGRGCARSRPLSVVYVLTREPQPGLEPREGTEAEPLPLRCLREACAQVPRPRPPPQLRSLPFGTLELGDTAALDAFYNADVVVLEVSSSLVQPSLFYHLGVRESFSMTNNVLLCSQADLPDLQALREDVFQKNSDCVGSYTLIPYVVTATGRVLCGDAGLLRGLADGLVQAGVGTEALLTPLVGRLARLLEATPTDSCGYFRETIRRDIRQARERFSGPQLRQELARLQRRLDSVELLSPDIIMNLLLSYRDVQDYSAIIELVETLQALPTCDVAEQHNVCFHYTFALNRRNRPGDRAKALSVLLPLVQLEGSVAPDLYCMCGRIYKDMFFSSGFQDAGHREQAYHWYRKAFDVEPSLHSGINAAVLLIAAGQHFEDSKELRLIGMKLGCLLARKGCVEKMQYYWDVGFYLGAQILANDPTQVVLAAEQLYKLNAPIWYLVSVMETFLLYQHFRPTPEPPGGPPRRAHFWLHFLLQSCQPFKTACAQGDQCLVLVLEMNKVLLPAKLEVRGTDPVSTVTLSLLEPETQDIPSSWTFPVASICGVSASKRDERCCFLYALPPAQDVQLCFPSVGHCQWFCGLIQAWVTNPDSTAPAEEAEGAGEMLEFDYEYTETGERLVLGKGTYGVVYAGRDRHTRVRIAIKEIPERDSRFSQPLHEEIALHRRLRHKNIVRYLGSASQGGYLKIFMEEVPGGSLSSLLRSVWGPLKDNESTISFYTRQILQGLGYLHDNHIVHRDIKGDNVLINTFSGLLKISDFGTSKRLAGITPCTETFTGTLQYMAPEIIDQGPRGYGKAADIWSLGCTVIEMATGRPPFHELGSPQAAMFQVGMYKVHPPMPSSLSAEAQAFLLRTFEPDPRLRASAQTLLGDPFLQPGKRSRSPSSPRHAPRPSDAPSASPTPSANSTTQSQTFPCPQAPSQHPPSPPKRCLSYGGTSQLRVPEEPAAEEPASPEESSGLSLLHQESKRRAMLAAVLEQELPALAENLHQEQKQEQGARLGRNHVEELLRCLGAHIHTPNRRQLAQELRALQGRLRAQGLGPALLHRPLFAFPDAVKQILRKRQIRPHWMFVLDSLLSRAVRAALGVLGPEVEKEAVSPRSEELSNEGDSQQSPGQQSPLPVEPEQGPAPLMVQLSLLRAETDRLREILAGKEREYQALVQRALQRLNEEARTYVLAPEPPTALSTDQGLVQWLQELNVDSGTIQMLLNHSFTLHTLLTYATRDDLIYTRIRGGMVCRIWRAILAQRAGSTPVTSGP
As to the kind of experiment: Selectivity interaction (KinomeScan (DiscoverX)) EUB0001619a MAP3K6. To be noted: at 1 µM.

Chain of Protein arginine N-methyltransferase 8 (Q9NR22 2-394 limits assumed): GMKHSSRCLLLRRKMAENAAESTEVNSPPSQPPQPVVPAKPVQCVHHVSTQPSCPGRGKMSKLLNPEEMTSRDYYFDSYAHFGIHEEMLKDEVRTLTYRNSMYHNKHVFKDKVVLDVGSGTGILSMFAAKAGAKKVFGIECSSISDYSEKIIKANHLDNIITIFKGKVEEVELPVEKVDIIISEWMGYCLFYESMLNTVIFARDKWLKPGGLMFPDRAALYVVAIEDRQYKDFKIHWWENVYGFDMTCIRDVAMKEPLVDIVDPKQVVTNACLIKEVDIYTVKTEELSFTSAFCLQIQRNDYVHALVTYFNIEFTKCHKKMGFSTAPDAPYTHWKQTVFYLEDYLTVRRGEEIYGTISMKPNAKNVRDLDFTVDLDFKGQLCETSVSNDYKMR
Chain of Phosphatidylinositol 4-phosphate 5-kinase type-1 alpha (Homo sapiens) (Q99755 whole entry): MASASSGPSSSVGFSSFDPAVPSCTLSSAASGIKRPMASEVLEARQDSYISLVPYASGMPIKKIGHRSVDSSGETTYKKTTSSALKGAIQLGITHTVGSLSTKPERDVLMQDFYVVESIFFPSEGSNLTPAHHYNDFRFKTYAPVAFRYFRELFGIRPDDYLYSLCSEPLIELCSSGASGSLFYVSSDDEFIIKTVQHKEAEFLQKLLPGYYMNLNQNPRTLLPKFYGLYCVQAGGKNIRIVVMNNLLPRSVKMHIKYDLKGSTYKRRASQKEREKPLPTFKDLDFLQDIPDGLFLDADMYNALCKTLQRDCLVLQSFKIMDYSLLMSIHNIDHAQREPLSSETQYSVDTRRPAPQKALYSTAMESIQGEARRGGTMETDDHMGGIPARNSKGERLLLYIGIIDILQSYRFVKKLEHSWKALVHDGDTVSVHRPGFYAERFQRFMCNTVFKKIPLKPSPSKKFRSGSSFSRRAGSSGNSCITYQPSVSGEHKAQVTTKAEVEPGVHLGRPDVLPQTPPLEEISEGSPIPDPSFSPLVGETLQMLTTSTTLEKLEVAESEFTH
Chain of Dual specificity tyrosine-phosphorylation-regulated kinase 1B (Q9Y463 whole entry, looked up): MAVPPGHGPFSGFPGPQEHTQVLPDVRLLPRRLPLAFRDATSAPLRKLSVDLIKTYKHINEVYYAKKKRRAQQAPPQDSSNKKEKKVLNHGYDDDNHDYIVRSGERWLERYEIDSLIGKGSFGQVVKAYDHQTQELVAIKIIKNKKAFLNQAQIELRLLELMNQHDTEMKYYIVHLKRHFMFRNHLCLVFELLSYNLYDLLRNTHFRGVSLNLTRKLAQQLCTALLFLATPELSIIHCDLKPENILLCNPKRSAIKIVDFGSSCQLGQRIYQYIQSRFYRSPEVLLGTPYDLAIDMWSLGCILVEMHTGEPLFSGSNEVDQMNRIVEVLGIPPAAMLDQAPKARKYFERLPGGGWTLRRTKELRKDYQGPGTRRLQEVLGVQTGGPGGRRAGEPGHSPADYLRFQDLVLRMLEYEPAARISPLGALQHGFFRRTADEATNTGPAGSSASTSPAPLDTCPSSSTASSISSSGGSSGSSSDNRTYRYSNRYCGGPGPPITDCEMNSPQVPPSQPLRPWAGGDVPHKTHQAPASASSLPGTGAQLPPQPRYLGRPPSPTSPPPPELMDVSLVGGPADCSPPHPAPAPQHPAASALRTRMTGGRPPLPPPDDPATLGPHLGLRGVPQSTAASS

`CCN(CC)CCCCNc1ncc2cc(-c3cc(OC)cc(OC)c3)c(NC(=O)NC(C)(C)C)nc2n1` yielded a % of control in assay [1] of 100%.

As for `COCCN1CCC(c2cc(CN(C)C(=O)c3cccc(Oc4ccccc4)c3)ccn2)CC1`, the % activity in assay [2] (at 1 µM) was 50%; in assay [2] (at 10 µM), over 90%.

For `C=CC(=O)Nc1cc(-n2c(=O)ccc3cnc4ccc(-c5ccc(NS(C)(=O)=O)cc5)cc4c32)ccc1C`, the % of control in assay [3] came to 95%.

In the case of `CNC(=O)Nc1ccc(-c2nc(N3CC4CCC(C3)O4)c3cnn(C4CCC5(CC4)OCCO5)c3n2)cc1`, the % of control in assay [4] stood at 93%; in assay [5], 100%.

As to `N#Cc1cccc(-c2c[nH]c3ncnc(N4CCOCC4)c23)c1`, the % of control in assay [6] stood at 57%.
